Drawing on patent publication US20100004250A1, “PTERIDINE DERIVATIVES AS POLO-LIKE KINASE INHIBITORS USEFUL IN THE TREATMENT OF CANCER” (CHROMA THERAPEUTICS LTD., priority 2006, published 2010), this text covers IC50 for 13 molecules.

Bounds are passed on as bounds.

In one assay the test system is HCT 116 cell line. Kind of assay: Cell inhibition assay (WST-1 proliferation). The class given is cell-based. The following applies: Homo sapiens, 120 hrs incubation, read-out: Inhibitor Activity vs HCT 116 cell line. How it is done: Cells were seeded in 96W tissue culture plates (1 well=30 mm^2) at a density of 500 cells per well in 50 μl of the appropriate culture medium (see below). 24 hrs later 50 μl of the compound prepared in the same medium was added as 4 fold dilutions to give final concentrations in the range 0.15 nM-2500 nM (n=6 for each concentration). The plates were then incubated at 37° C., 5% CO2 for 120 hrs. Cell proliferation was assessed using WST-1 (a metabolic indicator dye, Roche Cat no. 1 644 807) according to the manufacturers instructions. The results were calculated as percentage of vehicle response and IC50 values represent the concentration of compound that inhibited the vehicle response by 50%.
HCT-116 Culture Medium—Dulbeccos MEM (Sigma D6546) plus 10% heat inactivated fetal calf serum (Hyclone SH30071 Thermo Fischer Scientific) containing 2 mM Glutamine (Sigma cat no G-7513) and 50 U/ml Penicillin and Streptomycin Sulphate (Sigma Cat no P-0781).

For the next assay, the target named is T1, PLK1 (Homo sapiens, UniProt P53350).
T1 construct: purchased Invitrogen (Paisley, UK), assay service
T1 sequence (P53350 whole entry): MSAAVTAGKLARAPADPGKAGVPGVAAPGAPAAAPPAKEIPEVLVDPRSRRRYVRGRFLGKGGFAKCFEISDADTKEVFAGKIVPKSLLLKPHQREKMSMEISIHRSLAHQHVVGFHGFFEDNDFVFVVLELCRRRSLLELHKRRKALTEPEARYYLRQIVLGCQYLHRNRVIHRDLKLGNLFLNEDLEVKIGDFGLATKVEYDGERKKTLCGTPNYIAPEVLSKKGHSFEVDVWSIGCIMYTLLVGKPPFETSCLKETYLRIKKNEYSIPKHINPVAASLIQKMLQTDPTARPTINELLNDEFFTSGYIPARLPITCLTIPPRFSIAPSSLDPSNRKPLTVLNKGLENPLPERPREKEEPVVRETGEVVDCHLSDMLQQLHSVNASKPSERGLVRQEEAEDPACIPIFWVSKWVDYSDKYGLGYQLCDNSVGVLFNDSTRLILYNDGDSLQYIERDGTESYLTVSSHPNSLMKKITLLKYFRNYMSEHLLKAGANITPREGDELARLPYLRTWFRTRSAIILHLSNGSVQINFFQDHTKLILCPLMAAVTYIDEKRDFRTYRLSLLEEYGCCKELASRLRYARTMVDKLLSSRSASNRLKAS
In words: PLK1 enzyme assay (Z'-LYTE, Invitrogen). Format: biochemical. The settings on record: ATP at or close to Km, 60 minute kinase reaction; read-out: Inhibitor Activity vs PLK1. How it is done: The ability of compounds to inhibit PLK-1 kinase activity was measured in an assay performed by Invitrogen (Paisley, UK). The Z′-LYTE™ biochemical assay employs a fluorescence-based, coupled-enzyme format and is based on the differential sensitivity of phosphorylated and non-phosphorylated peptides to proteolytic cleavage. The peptide substrate is labelled with two fluorophores—one at each end—that make up a FRET pair. In the primary reaction, the kinase transfers the gamma-phosphate of ATP to a single serine or threonine residue in a synthetic FRET-peptide. In the secondary reaction, a site-specific protease recognizes and cleaves non-phosphorylated FRET-peptides. Phosphorylation of FRET-peptides suppresses cleavage by the Development Reagent. Cleavage disrupts FRET between the donor (i.e., coumarin) and acceptor (i.e., fluorescein) fluorophores on the FRET-peptide, whereas uncleaved, phosphorylated FRET-peptides maintain FRET. A […] method, which calculates the ratio (the Emission Ratio) of donor emission to acceptor emission after excitation of the donor fluorophore at 400 nm, is used to quantitate reaction progress.
The final 10 μl Kinase Reaction consists of 2.8-25.3 ng PLK1, 2 μM Ser/Thr 16 Peptide substrate and ATP in 50 mM HEPES pH 7.5, 0.01% BRIJ-35, 10 mM MgCl2, 1 mM EGTA. The assay is performed at an ATP concentration at, or close to, the Km. After the 60 minute Kinase Reaction incubation at room temperature, 5 μl of a 1:8 dilution of Development Reagent is added. The assay plate is incubated for a further 60 minutes at room temperature and read on a fluorescence plate reader.
Duplicate data points are generated from a ⅓ log dilution series of a stock solution of test compound in DMSO. Nine dilutions steps are made from a top concentration of 10 μM, and a “no compound” blank is included. Data is collected and analysed using XLfit software from IDBS. The dose response curve is curve fitted to model number 205 (sigmoidal dose-response model). From the curve generated, the concentration giving 50% inhibition is determined and reported.

Take `CC[C@@H]1C(=O)N(C)c2cnc(Nc3ccc(C(=O)NC4CCN(CCNC(=O)N[C@H](C(=O)OC5CCCC5)c5ccccc5)CC4)cc3OC)nc2N1C1CCCC1` [Example 9, Cyclopentyl (2S)-{[(2-{4-[(4-{[(7R)-8-cyclopentyl-7-ethyl-5-methyl-6-oxo-5,6,7,8-tetrahydropteridin-2-yl]amino}-3-methoxybenzoyl)amino]piperidin-1-yl}ethyl)carbamoyl]amino}(phenyl)acetate]: the IC50 with HCT 116 cell line and at PLK1 was < 100 nM throughout.
`CC[C@@H]1C(=O)N(C)c2cnc(Nc3ccc(C(=O)NC4CCN(CCCC(=O)N[C@H](CC(C)C)C(=O)OC5CCCC5)CC4)cc3OC)nc2N1C1CCCC1` [Example 2, Cyclopentyl N-(4-{4-[(4-{[(7R)-8-cyclopentyl-7-ethyl-5-methyl-6-oxo-5,6,7,8-tetrahydropteridin-2-yl]amino}-3-methoxybenzoyl)amino]piperidin-1-yl}butanoyl)-D-leucinate]: the IC50 with HCT 116 cell line and at PLK1 was < 100 nM throughout.
Turning to `CC[C@@H]1C(=O)N(C)c2cnc(Nc3ccc(C(=O)NC4CCN(CCCC(=O)N[C@H](C(=O)OC5CCCC5)c5ccccc5)CC4)cc3OC)nc2N1C1CCCC1` [Example 3, Cyclopentyl (2S)-[(4-{4-[(4-{[(7R)-8-cyclopentyl-7-ethyl-5-methyl-6-oxo-5,6,7,8-tetrahydropteridin-2-yl]amino}-3-methoxybenzoyl)amino]piperidin-1-yl}butanoyl)amino](Phenyl)acetate], the IC50 in the assay on HCT 116 cell line and on PLK1 was < 100 nM each time.
`CC[C@@H]1C(=O)N(C)c2cnc(Nc3ccc(C(=O)NC4CCN(CCCC(=O)N[C@@H](C(=O)OC5CCCC5)C5CCCCC5)CC4)cc3OC)nc2N1C1CCCC1` [Example 5, Cyclopentyl (2R)-cyclohexyl [(4-{4-[(4-{[(7R)-8-cyclopentyl-7-ethyl-5-methyl-6-oxo-5,6,7,8-tetrahydropteridin-2-yl]amino}-3-methoxybenzoyl)amino]piperidin-1-yl}butanoyl)amino]acetate]: the IC50 in the assay on HCT 116 cell line is > 500 nM; at PLK1, 100 to 500 nM.
The corresponding values for `CC[C@@H]1C(=O)N(C)c2cnc(Nc3c(F)cc(/C=C/CCCC(=O)N[C@@H](CC(C)C)C(=O)OC4CCCC4)cc3F)nc2N1C1CCCC1` [Example 16, Cyclopentyl N-[(5E)-6-(4-{[(7R)-8-cyclopentyl-7-ethyl-5-methyl-6-oxo-5,6,7,8-tetrahydropteridin-2-yl]amino}-3,5-difluorophenyl)hex-5-enoyl]-L-leucinate] are > 500 nM and 100 to 500 nM.
Regarding `CC[C@@H]1C(=O)N(C)c2cnc(Nc3ccc(C(=O)NC4CCN(CCCCC(=O)N[C@@H](CC(C)C)C(=O)OC5CCCC5)CC4)cc3OC)nc2N1C1CCCC1` [Example 6, Cyclopentyl N-(5-{4-[(4-{[(7R)-8-cyclopentyl-7-ethyl-5-methyl-6-oxo-5,6,7,8-tetrahydropteridin-2-yl]amino}-3-methoxybenzoyl)amino]piperidin-1-yl}pentanoyl)-L-leucinate], the IC50 in the assay with HCT 116 cell line and on PLK1 was < 100 nM in each case.
On to `CC[C@@H]1C(=O)N(C)c2cnc(Nc3ccc(C(=O)NCCCC(=O)N[C@@H](CC(C)C)C(=O)OC4CCCC4)cc3OC)nc2N1C1CCCC1` [Example 13, Cyclopentyl N-{4-[(4-{[(7R)-8-cyclopentyl-7-ethyl-5-methyl-6-oxo-5,6,7,8-tetrahydropteridin-2-yl]amino}-3-methoxybenzoyl)amino]butanoyl}-L-leucinate], for which the IC50 in the assay on HCT 116 cell line and on PLK1 was 100 to 500 nM in each case.
Turning to `CC[C@@H]1C(=O)N(C)c2cnc(Nc3ccc(C(=O)NC4CCN(CCNC(=O)N[C@H](C(=O)OC5CCCC5)C5CCCCC5)CC4)cc3OC)nc2N1C1CCCC1` [Example 10, Cyclopentyl (2S)-cyclohexyl{[(2-{4-[(4-{[(7R)-8-cyclopentyl-7-ethyl-5-methyl-6-oxo-5,6,7,8-tetrahydropteridin-2-yl]amino}-3-methoxybenzoyl)amino]piperidin-1-yl}ethyl)carbamoyl]amino}acetate], the values for the IC50 with HCT 116 cell line and on PLK1 were < 100 nM and 100 to 500 nM, respectively.
For the molecule `CC[C@@H]1C(=O)N(C)c2cnc(Nc3ccc(C(=O)NC4CCN(CC(=O)N[C@@H](CC(C)C)C(=O)OC5CCCC5)CC4)cc3OC)nc2N1C1CCCC1` [Example 7, Cyclopentyl N-({4-[(4-{[(7R)-8-cyclopentyl-7-ethyl-5-methyl-6-oxo-5,6,7,8-tetrahydropteridin-2-yl]amino}-3-methoxybenzoyl)amino]piperidin-1-yl}acetyl)-L-leucinate], the figures for the IC50 with HCT 116 cell line and on PLK1 were < 100 nM and 100 to 500 nM, respectively.
For `CC[C@@H]1C(=O)N(C)c2cnc(Nc3ccc(C(=O)NC4CCN(CCCC(=O)N[C@@H](C(=O)OC5CCCC5)c5ccccc5)CC4)cc3OC)nc2N1C1CCCC1` [Example 4, Cyclopentyl (2R)-[(4-{4-[(4-{[(7R)-8-cyclopentyl-7-ethyl-5-methyl-6-oxo-5,6,7,8-tetrahydropteridin-2-yl]amino}-3-methoxybenzoyl)amino]piperidin-1-yl}butanoyl)amino](phenyl)acetate], the IC50 with HCT 116 cell line and at PLK1 was < 100 nM in each case.
For `CC[C@@H]1C(=O)N(C)c2cnc(Nc3ccc(C(=O)N[C@H]4CC[C@@H](CCC(=O)N[C@@H](CC(C)C)C(=O)OC5CCCC5)CC4)cc3OC)nc2N1C1CCCC1` [Example 17, Cyclopentyl N-(3-{cis-4-[(4-{[(7R)-8-cyclopentyl-7-ethyl-5-methyl-6-oxo-5,6,7,8-tetrahydropteridin-2-yl]amino}-3-methoxybenzoyl)amino]cyclohexyl}propanoyl)-L-leucinate], the IC50 in the assay on HCT 116 cell line and on PLK1 was < 100 nM each time.
`CC[C@@H]1C(=O)N(C)c2cnc(Nc3ccc(/C=C/CCCC(=O)N[C@@H](CC(C)C)C(=O)OC4CCCC4)cc3F)nc2N1C1CCCC1` [Example 14, Cyclopentyl N-[(5E)-6-(4-{[(7R)-8-cyclopentyl-7-ethyl-5-methyl-6-oxo-5,6,7,8-tetrahydropteridin-2-yl]amino}-3-fluorophenyl)hex-5-enoyl]-L-leucinate]: the IC50 is > 500 nM with HCT 116 cell line and 100 to 500 nM at PLK1.
On to `CC[C@@H]1C(=O)N(C)c2cnc(Nc3ccc(C(=O)Nc4ccc(CCCC(=O)N[C@@H](CC(C)C)C(=O)OC5CCCC5)cc4)cc3OC)nc2N1C1CCCC1` [Example 12, Cyclopentyl N-(4-{4-[(4-{[(7R)-8-cyclopentyl-7-ethyl-5-methyl-6-oxo-5,6,7,8-tetrahydropteridin-2-yl]amino}-3-methoxybenzoyl)amino]phenyl}butanoyl)-L-leucinate], for which the values for the IC50 in the assay with HCT 116 cell line and at PLK1 were < 100 nM and 100 to 500 nM, respectively.
